From PubChem BioAssay AID1918993 (Molecular Pharmacology Branch, DTP, NCI, 2023)
pIC50: −log10 of the molar value.

Tested on: 233499-124-R-J3-PDC complex spheroid growth
Assay: Anticancer human tumor 233499-124-R-J3-PDC patient-derived colon adenocarcinoma cell line growth inhibition [AhR]
Conditions: for pIC50: curve of first compound; for viability, T/C: stronger effect = lower value
Method in brief: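 Complex tumor spheroids co-cultured with HUVEC and human MSC stroma; AhR antagonists tested in combination with standard-of-care and investigational agents. Top concentration at or near clinical Cmax (else 10 microM), half-log dilutions; growth expressed as percent test/control.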

[1] = second compound 0.1 µM, first compound 0.00949 µM
[2] = second compound 0.1 µM, first compound 0.03 µM
[3] = second compound 0.1 µM, first compound 0.0949 µM
[4] = second compound 0.1 µM, first compound 0.3 µM
[5] = second compound 0.316 µM, first compound 0.00949 µM
[6] = second compound 0.316 µM, first compound 0.03 µM
[7] = second compound 0.316 µM, first compound 0.0949 µM
[8] = second compound 0.316 µM, first compound 0.3 µM
[9] = second compound 1 µM, first compound 0.00949 µM
[10] = second compound 1 µM, first compound 0.03 µM
[11] = second compound 1 µM, first compound 0.0949 µM
[12] = second compound 1 µM, first compound 0.3 µM
[13] = second compound 3.16 µM, first compound 0.00949 µM
[14] = second compound 3.16 µM, first compound 0.03 µM
[15] = second compound 3.16 µM, first compound 0.0949 µM
[16] = second compound 3.16 µM, first compound 0.3 µM
[17] = second compound 10 µM, first compound 0.00949 µM
[18] = second compound 10 µM, first compound 0.03 µM
[19] = second compound 10 µM, first compound 0.0949 µM
[20] = second compound 10 µM, first compound 0.3 µM
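Further: spheroids exposed to agents for seven days before reading.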

**Q.** Which results are given for `CCN(c1cc(-c2ccc(CN3CCOCC3)cc2)cc(C(=O)NCc2c(C)cc(C)[nH]c2=O)c1C)C1CCOCC1` + CC(CO)NC(=O)c1cc(-c2ccc(Cl)cc2)nn(-c2cnn(C)c2)c1=O?
**A.** pIC50 (second compound 0.1 µM): < 5.52; pIC50 (second compound 0.316 µM): < 5.52; pIC50 (second compound 1 µM): < 5.52; pIC50 (second compound 3.16 µM): < 5.52; pIC50 (second compound 10 µM): < 5.52; viability, T/C [1]: 100%; viability, T/C [2]: 86.8%; viability, T/C [3]: 88.2%; viability, T/C [4]: 82.9%; viability, T/C (second compound 0.1 µM, first compound 0.949 µM): 93.5%; viability, T/C (second compound 0.1 µM, first compound 3 µM): 94.3%; viability, T/C [5]: 103%; viability, T/C [6]: 98.6%; viability, T/C [7]: 94.9%; viability, T/C [8]: 85.6%; viability, T/C (second compound 0.316 µM, first compound 0.949 µM): 99.9%; viability, T/C (second compound 0.316 µM, first compound 3 µM): 83.8%; viability, T/C [9]: 95.6%; viability, T/C [10]: 96.1%; viability, T/C [11]: 91%; viability, T/C [12]: 95.4%; viability, T/C (second compound 1 µM, first compound 0.949 µM): 88.4%; viability, T/C (second compound 1 µM, first compound 3 µM): 90.2%; viability, T/C [13]: 88%; viability, T/C [14]: 82%; viability, T/C [15]: 85.6%; viability, T/C [16]: 91.9%; viability, T/C (second compound 3.16 µM, first compound 0.949 µM): 98.7%; viability, T/C (second compound 3.16 µM, first compound 3 µM): 86.6%; viability, T/C [17]: 80.9%; viability, T/C [18]: 77.2%; viability, T/C [19]: 79.7%; viability, T/C [20]: 82.5%; viability, T/C (second compound 10 µM, first compound 0.949 µM): 73.5%; viability, T/C (second compound 10 µM, first compound 3 µM): 83.1%

**Q.** With `CCc1c2c(nc3ccc(O)cc13)-c1cc3c(c(=O)n1C2)COC(=O)[C@]3(O)CC` + CC(CO)NC(=O)c1cc(-c2ccc(Cl)cc2)nn(-c2cnn(C)c2)c1=O as the compound, how does the pIC50 (second compound 0.1 µM) read?
**A.** 6.52

**Q.** And the pIC50 (second compound 0.316 µM)?
**A.** < 6.52

**Q.** And the pIC50 (second compound 1 µM)?
**A.** < 6.52

**Q.** And the pIC50 (second compound 3.16 µM)?
**A.** < 6.52

**Q.** What about the pIC50 (second compound 10 µM) of the same compound?
**A.** < 6.52

**Q.** What about the viability, T/C (second compound 0.1 µM, first compound 0.000949 µM) of the same compound?
**A.** 87.3%

**Q.** What about the viability, T/C (second compound 0.1 µM, first compound 0.003 µM) of the same compound?
**A.** 98.9%

**Q.** What about the viability, T/C [1] of the same compound?
**A.** 73.4%

**Q.** And the viability, T/C [2]?
**A.** 50.5%

**Q.** What about the viability, T/C [3] of the same compound?
**A.** 60.6%

**Q.** What about the viability, T/C [4] of the same compound?
**A.** 55.1%

**Q.** And the viability, T/C (second compound 0.316 µM, first compound 0.000949 µM)?
**A.** 108%

**Q.** What about the viability, T/C (second compound 0.316 µM, first compound 0.003 µM) of the same compound?
**A.** 105%

**Q.** And the viability, T/C [5]?
**A.** 76.4%

**Q.** What about the viability, T/C [6] of the same compound?
**A.** 56.2%

**Q.** What about the viability, T/C [7] of the same compound?
**A.** 57.9%

**Q.** What about the viability, T/C [8] of the same compound?
**A.** 66.4%

**Q.** What about the viability, T/C (second compound 1 µM, first compound 0.000949 µM) of the same compound?
**A.** 103%

**Q.** And the viability, T/C (second compound 1 µM, first compound 0.003 µM)?
**A.** 94.4%

**Q.** What about the viability, T/C [9] of the same compound?
**A.** 80.5%

**Q.** What about the viability, T/C [10] of the same compound?
**A.** 64.7%

**Q.** What about the viability, T/C [11] of the same compound?
**A.** 57.9%

**Q.** And the viability, T/C [12]?
**A.** 62.5%

**Q.** And the viability, T/C (second compound 3.16 µM, first compound 0.000949 µM)?
**A.** 92.8%

**Q.** What about the viability, T/C (second compound 3.16 µM, first compound 0.003 µM) of the same compound?
**A.** 88.2%

**Q.** What about the viability, T/C [13] of the same compound?
**A.** 71.6%

**Q.** And the viability, T/C [14]?
**A.** 58%

**Q.** What about the viability, T/C [15] of the same compound?
**A.** 72.8%

**Q.** What about the viability, T/C [16] of the same compound?
**A.** 48.6%

**Q.** And the viability, T/C (second compound 10 µM, first compound 0.000949 µM)?
**A.** 93.8%

**Q.** What about the viability, T/C (second compound 10 µM, first compound 0.003 µM) of the same compound?
**A.** 70.4%

**Q.** What about the viability, T/C [17] of the same compound?
**A.** 77.9%

**Q.** What about the viability, T/C [18] of the same compound?
**A.** 75.4%

**Q.** What about the viability, T/C [19] of the same compound?
**A.** 49.1%

**Q.** And the viability, T/C [20]?
**A.** 59.7%

**Q.** Which results are given for `CC[C@@]1(O)C(=O)OCc2c1cc1n(c2=O)Cc2cc3c(CN(C)C)c(O)ccc3nc2-1` + CC(CO)NC(=O)c1cc(-c2ccc(Cl)cc2)nn(-c2cnn(C)c2)c1=O?
**A.** pIC50 (second compound 0.1 µM): < 7.00; pIC50 (second compound 0.316 µM): < 7.00; pIC50 (second compound 1 µM): < 7.00; pIC50 (second compound 3.16 µM): < 7.00; pIC50 (second compound 10 µM): < 7.00; viability, T/C (second compound 0.1 µM, first compound 0.000316 µM): 99.5%; viability, T/C (second compound 0.1 µM, first compound 0.001 µM): 92.5%; viability, T/C (second compound 0.1 µM, first compound 0.00316 µM): 95.3%; viability, T/C (second compound 0.1 µM, first compound 0.01 µM): 87.2%; viability, T/C (second compound 0.1 µM, first compound 0.0316 µM): 84.1%; viability, T/C (second compound 0.1 µM, first compound 0.1 µM): 57.7%; viability, T/C (second compound 0.316 µM, first compound 0.000316 µM): 87.4%; viability, T/C (second compound 0.316 µM, first compound 0.001 µM): 94.6%; viability, T/C (second compound 0.316 µM, first compound 0.00316 µM): 89%; viability, T/C (second compound 0.316 µM, first compound 0.01 µM): 99.5%; viability, T/C (second compound 0.316 µM, first compound 0.0316 µM): 89.6%; viability, T/C (second compound 0.316 µM, first compound 0.1 µM): 68.9%; viability, T/C (second compound 1 µM, first compound 0.000316 µM): 93%; viability, T/C (second compound 1 µM, first compound 0.001 µM): 90%; viability, T/C (second compound 1 µM, first compound 0.00316 µM): 89.3%; viability, T/C (second compound 1 µM, first compound 0.01 µM): 88.8%; viability, T/C (second compound 1 µM, first compound 0.0316 µM): 81.9%; viability, T/C (second compound 1 µM, first compound 0.1 µM): 65.3%; viability, T/C (second compound 3.16 µM, first compound 0.000316 µM): 81.3%; viability, T/C (second compound 3.16 µM, first compound 0.001 µM): 82.3%; viability, T/C (second compound 3.16 µM, first compound 0.00316 µM): 84.6%; viability, T/C (second compound 3.16 µM, first compound 0.01 µM): 99.6%; viability, T/C (second compound 3.16 µM, first compound 0.0316 µM): 88%; viability, T/C (second compound 3.16 µM, first compound 0.1 µM): 75%; viability, T/C (second compound 10 µM, first compound 0.000316 µM): 81.5%; viability, T/C (second compound 10 µM, first compound 0.001 µM): 80.1%; viability, T/C (second compound 10 µM, first compound 0.00316 µM): 81.9%; viability, T/C (second compound 10 µM, first compound 0.01 µM): 68.6%; viability, T/C (second compound 10 µM, first compound 0.0316 µM): 54.9%; viability, T/C (second compound 10 µM, first compound 0.1 µM): 56.1%
